Legend:
[1] = octanol/water, 25° C.; cited from earlier work
PR1 protein [2] = test: Evaluation of disease resistance: PR1 protein content of sprayed leaf by western blotting, rice; assay type: in vivo; conditions: seedling sheet Z-1, band density relative to thiazinyl solution of same period
Experimental: (§1) The results are shown in the rows of “cultivation in paddy field” of Table 3 (rice) and Table 4 (tomato).
(§2) A 1/5000-are pot was filled with 2.9 kg of paddy field soil (clay loam). Ten young seedlings having 2 to 3 leaves grown by the above method were planted in a depth of 2 cm and watered, and the seedlings were placed in water at a depth of 3 cm. The seedlings were left to stand at 25° C. for a predetermined period shown in Table 3 or Table 4 (days (day) from moving to paddy field until evaluation). Each leaf sprayed with the nanoparticle (P) dispersion (or thiazinyl solution) was cut off, immersed in ion exchange water in a container for one minute, and taken out from the container. The liquid in the container was replaced by fresh ion exchange water. The leaf was further subjected to an operation of immersing in the fresh ion exchange water in the container for one minute and taking out of the container three times, whereby the nanoparticles (P) (or thiazinyl) attached to the leaf surface were removed. Then, proteins were extracted from the above leaf using 8-min Plant Tissue Total Protein Extraction Kit (available from Cosmo Bio Co., Ltd.), and the PR1 protein content, which is a marker of disease resistance, in the extracted proteins was determined as follows. The total protein content was quantified with Micro BCATM protein assay kit (available from THERMO Fisher Scientific). […]
(§3) The test was performed five times for each seedling. The PR1 protein content was evaluated by western blotting (including electrophoresis, transferring, and color development) specifically described later. […]
(§4) After a PR1 protein band was detected in the transferring membrane after the operations (1) to (3), the density of the band was quantified with Image J (available from National Institutes of Health, USA). In Examples 11 to 14, the quantified density of the band in each of Examples 11 to 14 was divided by the density of the band in Comparative Example 3. […]

PR1 protein [3] = test: Evaluation of disease resistance: PR1 protein content of sprayed leaf by western blotting, tomato; assay type: in vivo; conditions: seedling sheet Z-1, band density relative to thiazinyl solution of same period
Experimental: as §1, §2, §3, §4

Hinohikari (rice) [4] = test: Evaluation of crop injury after treatment with nanoparticles (P) or thiazinyl, rice; assay type: in vivo; design: key: 0: Harmless (healthy); 1: minimally damaged; 2: slightly damaged; 3: moderately damaged; 4: significantly damaged; 5: complete leaf firing; conditions: seedling sheet Z-1, 100 μL spray, thiazinyl 100 ppm
Experimental: as §1
(§5) Young seedlings were treated with the nanoparticles (P) or thiazinyl in the same manner as in the method described in <Evaluation of disease resistance>. Then, the degree of crop injury on the leaf surface was evaluated after a predetermined period of time (days (day) shown in Tables 3 and 4, from moving to the paddy field until evaluation). Specifically, crop injury was visually evaluated with the naked eye according to the following criteria.

House Momotaro (tomato) [5] = test: Evaluation of crop injury after treatment with nanoparticles (P) or thiazinyl, tomato; assay type: in vivo; design: key: 0: Harmless (healthy); 1: minimally damaged; 2: slightly damaged; 3: moderately damaged; 4: significantly damaged; 5: complete leaf firing; conditions: seedling sheet Z-1, 100 μL spray, thiazinyl 100 ppm
Experimental: as §1, §5

Hinohikari (rice) [6] = test: Aerial part growing ratio after treatment with nanoparticles (P) or thiazinyl, rice; assay type: in vivo; conditions: seedling sheet Z-1, relative to thiazinyl solution of same period
Experimental: as §1
(§6) Young seedlings were treated with the nanoparticles (P) or thiazinyl in the same manner as in the method described in the <Evaluation of disease resistance>, and the aerial part growing state was evaluated after a predetermined period (shown in Tables 3 and 4, days (day) from moving to the paddy field until evaluation). Specifically, the aerial part growing state was evaluated by measuring the length of each part. The aerial part length in each example treated with the nanoparticles (P) for a predetermined period was divided by the aerial part length in the comparative example treated with a thiazinyl solution for the same period. The calculated value was regarded as the aerial part growing ratio.

House Momotaro (tomato) [7] = test: Aerial part growing ratio after treatment with nanoparticles (P) or thiazinyl, tomato; assay type: in vivo; conditions: seedling sheet Z-1, relative to thiazinyl solution of same period
Experimental: as §1, §6

[8] = 1 day from moving to paddy field
[9] = 3 days from moving to paddy field
[10] = 7 days from moving to paddy field

Row | Structure (SMILES) | Log Pow [1] | also measured
1 | CC1(C)[C@H](C(=O)O[C@H](C#N)c2cccc(Oc3ccccc3)c2)[C@@H]1/C=C\C(=O)OC(C(F)(F)F)C(F)(F)F [acrinathrin] | 5.25 | 
2 | N#Cc1c(Cl)c(Cl)c(Cl)c(C#N)c1Cl [TPN, chlorothalonil] | 2.92 | 
3 | CCCSP(=O)(OCC)Oc1cnn(-c2ccc(Cl)cc2)c1 (centres unmarked) [pyraclofos] | 3.77 | 
4 | N#CC(CCc1ccc(Cl)cc1)(Cn1cncn1)c1ccccc1 (centres unmarked) [fenbuconazole] | 3.23 | 
5 | O=C1C2CC=CCC2C(=O)N1SC(Cl)(Cl)Cl (centres unmarked) [captan] | 2.8 | 
6 | O=C(NC(=O)c1c(F)cccc1F)Nc1cc(Cl)c(OC(F)(F)C(F)F)c(Cl)c1 [hexaflumuron] | 4.68 | 
7 | COCC(=O)N(c1c(C)cccc1C)C(C)C(=O)OC (centres unmarked) [metalaxyl] | 1.75 | 
8 | COC(=O)NC(=S)Nc1ccccc1NC(=S)NC(=O)OC [thiophanate-methyl] | 1.5 | 
9 | O=C1OCc2c(Cl)c(Cl)c(Cl)c(Cl)c21 [fthalide] | 3.01 | 
10 | Cc1ccc(NC(=O)c2snnc2C)cc1Cl [thiazinyl] | 3.68 | PR1 protein mass ratio (PR1 protein [2]; 1 day): 1.0; PR1 protein mass ratio (PR1 protein [2]; 3 days): 1.0; PR1 protein mass ratio (PR1 protein [2]; 7 days): 1.0; PR1 protein mass ratio (PR1 protein [3]; 1 day): 1.0; PR1 protein mass ratio (PR1 protein [3]; 3 days): 1.0; PR1 protein mass ratio (PR1 protein [3]; 7 days): 1.0; Crop injury (Hinohikari (rice) [4]; [8]): 3; Crop injury (Hinohikari (rice) [4]; [9]): 4; Crop injury (Hinohikari (rice) [4]; [10]): 4; Crop injury (House Momotaro (tomato) [5]; [8]): 2; Crop injury (House Momotaro (tomato) [5]; [9]): 3; Crop injury (House Momotaro (tomato) [5]; [10]): 3; Aerial part growth ratio (Hinohikari (rice) [6]; 1 day): 1.0; Aerial part growth ratio (Hinohikari (rice) [6]; 3 days): 1.0; Aerial part growth ratio (Hinohikari (rice) [6]; 7 days): 1.0; Aerial part growth ratio (House Momotaro (tomato) [7]; 1 day): 1.0; Aerial part growth ratio (House Momotaro (tomato) [7]; 3 days): 1.0; Aerial part growth ratio (House Momotaro (tomato) [7]; 7 days): 1.0
11 | CC(C)Oc1cccc(NC(=O)c2ccccc2C(F)(F)F)c1 [flutolanil] | 3.17 | 
12 | CN(C)C(=S)SSC(=S)N(C)C [thiuram] | 1.73 | 
13 | CCOc1ccc(NC(=O)OC(C)C)cc1OCC [diethofencarb] | 3.02 | 
14 | COP(=S)(OC)Oc1ccc([N+](=O)[O-])c(C)c1 [fenitrothion] | 3.43 | 
15 | C/C(=N/Nc1nc(C)cc(C)n1)c1ccccc1C [ferimzone] | 2.89 | 
16 | CCCCC(C#N)(Cn1cncn1)c1ccc(Cl)cc1 (centres unmarked) [myclobutanil] | 2.9 | 

Row | Structure (SMILES) | Log Pow [1] | also measured
17 | CCOP(=S)(OCC)Oc1cc(C)nc(C(C)C)n1 [diazinon] | 3.3 | 
18 | C=CCCCOC(=O)C(CC)N(Cc1ccco1)C(=O)n1ccnc1 (centres unmarked) [pefurazoate] | 3.0 | 
19 | CSC(=O)c1cccc2nnsc12 [acibenzolar-S-methyl] | 3.1 | 
20 | CCOP(=O)(SC(C)CC)N1CCSC1=O (centres unmarked) [fosthiazate] | 1.68 | 
21 | CC(C)OP(=O)(OC(C)C)SCc1ccccc1 [iprobenfos] | 3.37 | 
22 | Cc1c(F)c(F)c(COC(=O)[C@@H]2[C@H](/C=C(\Cl)C(F)(F)F)C2(C)C)c(F)c1F (racemic) [tefluthrin] | 6.5 | 
23 | O=C(NC(=O)c1c(F)cccc1F)Nc1cc(Cl)c(OC(F)(F)C(F)C(F)(F)F)cc1Cl (centres unmarked) [lufenuron] | 5.12 | 
24 | COc1nn(CSP(=S)(OC)OC)c(=O)s1 [methidathion] | 2.2 | 
25 | O=[N+]([O-])c1ccc(NS(=O)(=O)c2ccc(Cl)c(C(F)(F)F)c2)c(Cl)c1 [flusulfamide] | 2.8 | 
26 | O=C(NC(=O)c1c(F)cccc1F)Nc1ccc(Cl)c(Oc2ncc(C(F)(F)F)cc2Cl)c1 [fluazuron] | 5.1 | 
27 | N#Cc1ccccc1NC(=O)c1snc(Cl)c1Cl [isotianil] | 2.96 | 
28 | Cc1nn(C)c(Cl)c1C(=O)Nc1cccc2c1C(C)OC2(C)C (centres unmarked) [furametpyr] | 2.36 | 
29 | CS/C(C)=N\OC(=O)N(C)SN(C)C(=O)O/N=C(\C)SC [thiodicarb] | 1.62 | 
30 | O=C1CCc2cccc3c2N1CC3 [pyroquilone] | 1.42 | 
31 | CC(C)[C@H](Nc1ccc(C(F)(F)F)cc1Cl)C(=O)OC(C#N)c1cccc(Oc2ccccc2)c1 (some centres unmarked) [fluvalinate] | 2.9 | 
32 | COC(=O)c1c(C(F)F)nc(C(F)(F)F)c(C2=NCCS2)c1CC(C)C [thiazopyr] | 3.89 | 
